According to article PMC12967844 (Engineering Microbiology, 2025):

Biological target: PtlI (pentalenene oxygenase) (Streptomyces avermitilis, UniProt Q82IY3)
Conditions: E. coli co-expressing penA; substrate made in the cell; endogenous E. coli redox proteins

Chain of PtlI (pentalenene oxygenase) (Q82IY3 whole entry): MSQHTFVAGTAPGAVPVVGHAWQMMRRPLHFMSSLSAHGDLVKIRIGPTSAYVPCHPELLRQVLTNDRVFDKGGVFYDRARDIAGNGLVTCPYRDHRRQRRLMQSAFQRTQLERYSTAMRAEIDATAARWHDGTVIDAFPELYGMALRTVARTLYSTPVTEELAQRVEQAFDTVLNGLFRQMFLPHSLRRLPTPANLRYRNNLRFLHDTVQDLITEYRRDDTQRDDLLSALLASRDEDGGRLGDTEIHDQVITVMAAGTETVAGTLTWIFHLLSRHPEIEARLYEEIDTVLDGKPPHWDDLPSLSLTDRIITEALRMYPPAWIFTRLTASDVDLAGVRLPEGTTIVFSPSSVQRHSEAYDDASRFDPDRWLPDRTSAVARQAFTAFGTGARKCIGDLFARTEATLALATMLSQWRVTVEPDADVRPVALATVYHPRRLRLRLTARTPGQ

Q: Which “GC-MS of culture extracts, heterologous expression in E. coli” value does the source give for `CC1=C[C@@H]2CC(C)(C)C[C@@]23[C@H](C)CC[C@@H]13` [compound 3, pentalenene] here?
A: Its value is “PtlI can catalyze a three-step oxidation in the cell”.
